Reference: ChEMBL document CHEMBL1142222, “A-803467, a potent and selective Nav1.8 sodium channel blocker, attenuates neuropathic and inflammatory pain in the rat” (Proc Natl Acad Sci U S A, 2007)

How the values were obtained:
Rattus norvegicus [1] = assay: Analgesic activity in ip dosed rat L5/L6 spinal nerve ligation-induced neuropathic pain model; type: functional
Rattus norvegicus [2] = assay: Analgesic activity in ip dosed rat chronic constriction injury model of mechanical allodynia; type: functional
Rattus norvegicus [3] = assay: Analgesic activity in rat chronic constriction injury model of mechanical allodynia at 100 mg/kg, ip; type: functional; conditions: route intraperitoneal
Rattus norvegicus [4] = assay: Analgesic activity in rat chronic constriction injury model of cold allodynic neuropathic pain at 100 mg/kg, ip; type: functional; conditions: route intraperitoneal
Rattus norvegicus [5] = assay: Analgesic activity in rat vincristine-induced mechanical allodynic neuropathic pain at 100 mg/kg, ip; type: functional; conditions: route intraperitoneal
Mus musculus = assay: Analgesic activity in mouse visceral pain model assessed as acetic acid induced writhing at 100 mg/kg, ip; type: functional; conditions: route intraperitoneal
Rattus norvegicus [6] = assay: Analgesic activity in ip dosed rat cyclophosphamide induced cyctitis model; type: functional
Rattus norvegicus [7] = species on record: Rattus norvegicus; assay: Motor effect in rat assessed as locomotory activity; type: functional
Rattus norvegicus [8] = species on record: Rattus norvegicus; assay: Motor effect in rat by rotarod test; type: functional
[9] = molecular target: 5-hydroxytryptamine receptor 2A (Homo sapiens, UniProt P28223); assay: Displacement of [3H]ketanserin from 5HT2A receptor
[10] = molecular target: 5-hydroxytryptamine receptor 2C (Homo sapiens, UniProt P28335); assay: Displacement of [3H]mesulergine from 5HT2C receptor
[11] = molecular target: 5-hydroxytryptamine receptor 3A (Homo sapiens, UniProt P46098); assay: Displacement of [3H]BRL43694 from 5HT3 receptor
[12] = molecular target: Sigma non-opioid intracellular receptor 1 (Homo sapiens, UniProt Q99720); assay: Displacement of [3H]pentazocine from sigma1 receptor
[13] = Elimination half life in iv dosed rat; type: ADME, organism-based; conditions: in vivo
[14] = Cmax in rat at 10 mg/kg, po; type: ADME, organism-based; design: dose 10 mg/kg, route oral; conditions: in vivo
[15] = Tmax in rat at 10 mg/kg, po; type: ADME, organism-based; design: dose 10 mg/kg, route oral; conditions: in vivo
[16] = Tmax in rat at 10 mg/kg, ip; type: ADME, organism-based; design: dose 10 mg/kg, route intraperitoneal; conditions: in vivo
[17] = Protein binding in rat plasma; type: ADME, cell-free; conditions: read-out: PPB (converted)
Rattus norvegicus [18] = species on record: Rattus norvegicus; assay: Analgesic activity in rat spinal nerve ligation model at 200 to 300 nM; type: functional
Rattus norvegicus [19] = assay: Analgesic activity in ip dosed rat acute thermal stimulation nociception model assessed as paw withdrawal latency; type: functional
Rattus norvegicus [20] = assay: Analgesic activity in ip dosed rat acute mechanical stimulation nociception model assessed as paw withdrawal latency; type: functional
Rattus norvegicus [21] = assay: Analgesic activity in rat acute mechanical stimulation nociception model assessed as paw withdrawal latency at 100 mg/kg, ip; type: functional; conditions: route intraperitoneal
Rattus norvegicus [22] = assay: Analgesic activity in ip dosed rat capsaicn induced mechanical allodynia model; type: functional
Rattus norvegicus [23] = assay: Analgesic activity in rat capsaicn induced mechanical allodynia model at 300 mg/kg, ip; type: functional; conditions: route intraperitoneal
Rattus norvegicus [24] = assay: Analgesic activity in rat carrageenan-induced […] pain model at 100 mg/kg, ip; type: functional; conditions: route intraperitoneal
Rattus norvegicus [25] = assay: Analgesic activity in rat complete Freund's adjuvant-induced thermal hyperalgesia model assessed as paw withdrawal latency at 100 mg/kg, ip after 2 days; type: functional; conditions: route intraperitoneal
Rattus norvegicus [26] = assay: Analgesic activity in rat complete Freund's adjuvant-induced thermal hyperalgesia model assessed as paw withdrawal latency at 100 mg/kg, ip after 4 days; type: functional; conditions: route intraperitoneal
Rattus norvegicus [27] = assay: Analgesic activity in ip dosed rat complete Freund's adjuvant-induced mechanical hyperalgesia model assessed as paw withdrawal latency after 2 days; type: functional; conditions: 48 h
Rattus norvegicus [28] = assay: Motor effect in rat assessed as latency to fall at 300 mg/kg, ip by edge balance test; type: functional; conditions: route intraperitoneal
Adenosine receptor A1 = Adenosine receptor A1 (Homo sapiens, UniProt P30542); assay: Displacement of [3H]DPCPX from adenosine A1 receptor
Adenosine receptor A3 = Adenosine receptor A3 (Homo sapiens, UniProt P0DMS8); assay: Displacement of [125I]AB-MECA from adenosine A3 receptor
[29] = Displacement of [3H]prazosin from adrenergic alpha-1 receptor
ADRB1 = ADRB1 (Homo sapiens, UniProt P08588); assay: Displacement of [3H](-)CGP-12177 from adrenergic beta-1 receptor
[30] = molecular target: Beta-2 adrenergic receptor (Homo sapiens, UniProt P07550); assay: Displacement of [3H](-)CGP-12177 from adrenergic beta2 receptor
D(1A) dopamine receptor = D(1A) dopamine receptor (Homo sapiens, UniProt P21728); assay: Displacement of [3H]SCH-23390 from dopamine D1 receptor
[31] = molecular target: Sodium channel protein type 10 subunit alpha (Rattus norvegicus, UniProt Q62968); assay: Inhibition of Nav1.8 channel in rat dorsal root ganglion neurons assessed as blockade of TTX-R current at -100 mV by patch clamp method; type: tissue-based
[32] = molecular target: T1, Sodium channel protein type 10 subunit alpha (Homo sapiens, UniProt Q9Y5Y9); assay: Inhibition of human Nav1.8 channel expressed in HEK293 cells at -100 mV by patch clamp method; type: cell-based
[33] = molecular target: T1, Sodium channel protein type 10 subunit alpha; assay: Inhibition of human Nav1.8 channel expressed in HEK293 cells at -40 mV by patch clamp method; type: cell-based
[34] = molecular target: Sodium channel protein type 5 subunit alpha (Homo sapiens, UniProt Q14524); assay: Inhibition of human Nav1.5 channel expressed in HEK293 cells at -150 mV by patch clamp method; type: cell-based
[35] = molecular target: Sodium channel protein type 9 subunit alpha (Homo sapiens, UniProt Q15858); assay: Inhibition of human Nav1.7 channel expressed in HEK293 cells at -60 mV by patch clamp method; type: cell-based
Rattus norvegicus [36] = assay: Analgesic activity in rat complete Freund's adjuvant-induced mechanical hyperalgesia model assessed as paw withdrawal latency at 100 mg/kg, ip after 2 days; type: functional; conditions: route intraperitoneal
Rattus norvegicus [37] = assay: Analgesic activity in rat complete Freund's adjuvant-induced mechanical hyperalgesia model assessed as paw withdrawal latency at 100 mg/kg, ip after 4 days; type: functional; conditions: route intraperitoneal
D(3) dopamine receptor = D(3) dopamine receptor (Homo sapiens, UniProt P35462); assay: Displacement of [3H]spiperone from dopamine D3 receptor
[38] = molecular target: C-X-C chemokine receptor type 2 (Homo sapiens, UniProt P25025); assay: Displacement of [125I]IL8 from CXCR2 receptor
[39] = Displacement of [125I]TNFalpha from TNFalpha receptor
[40] = molecular target: C-C chemokine receptor type 1 (Homo sapiens, UniProt P32246); assay: Displacement of [125I]MIP1-alpha from CCR1 receptor
Histamine H1 receptor = Histamine H1 receptor (Homo sapiens, UniProt P35367); assay: Displacement of [3H]pyrilamine from histamine H1 receptor
[41] = molecular target: Muscarinic acetylcholine receptor M2 (Homo sapiens, UniProt P08172); assay: Displacement of [3H]AF-DX384 from muscarinic M2 receptor
[42] = molecular target: Muscarinic acetylcholine receptor M3 (Homo sapiens, UniProt P20309); assay: Displacement of [3H]4DAMP from muscarinic M3 receptor
[43] = molecular target: Muscarinic acetylcholine receptor M4 (Homo sapiens, UniProt P08173); assay: Displacement of [3H]4DAMP from muscarinic M4 receptor
[44] = molecular target: Delta-type opioid receptor (Homo sapiens, UniProt P41143); assay: Displacement of [3H]DADLE from opioid delta receptor
[45] = molecular target: Kappa-type opioid receptor (Homo sapiens, UniProt P41145); assay: Displacement of [3H]U-69593 from opioid kappa receptor
Nociceptin receptor = Nociceptin receptor (Homo sapiens, UniProt P41146); assay: Displacement of [3H]nociceptin from ORL1 receptor

T1 sequence (Q9Y5Y9 whole entry): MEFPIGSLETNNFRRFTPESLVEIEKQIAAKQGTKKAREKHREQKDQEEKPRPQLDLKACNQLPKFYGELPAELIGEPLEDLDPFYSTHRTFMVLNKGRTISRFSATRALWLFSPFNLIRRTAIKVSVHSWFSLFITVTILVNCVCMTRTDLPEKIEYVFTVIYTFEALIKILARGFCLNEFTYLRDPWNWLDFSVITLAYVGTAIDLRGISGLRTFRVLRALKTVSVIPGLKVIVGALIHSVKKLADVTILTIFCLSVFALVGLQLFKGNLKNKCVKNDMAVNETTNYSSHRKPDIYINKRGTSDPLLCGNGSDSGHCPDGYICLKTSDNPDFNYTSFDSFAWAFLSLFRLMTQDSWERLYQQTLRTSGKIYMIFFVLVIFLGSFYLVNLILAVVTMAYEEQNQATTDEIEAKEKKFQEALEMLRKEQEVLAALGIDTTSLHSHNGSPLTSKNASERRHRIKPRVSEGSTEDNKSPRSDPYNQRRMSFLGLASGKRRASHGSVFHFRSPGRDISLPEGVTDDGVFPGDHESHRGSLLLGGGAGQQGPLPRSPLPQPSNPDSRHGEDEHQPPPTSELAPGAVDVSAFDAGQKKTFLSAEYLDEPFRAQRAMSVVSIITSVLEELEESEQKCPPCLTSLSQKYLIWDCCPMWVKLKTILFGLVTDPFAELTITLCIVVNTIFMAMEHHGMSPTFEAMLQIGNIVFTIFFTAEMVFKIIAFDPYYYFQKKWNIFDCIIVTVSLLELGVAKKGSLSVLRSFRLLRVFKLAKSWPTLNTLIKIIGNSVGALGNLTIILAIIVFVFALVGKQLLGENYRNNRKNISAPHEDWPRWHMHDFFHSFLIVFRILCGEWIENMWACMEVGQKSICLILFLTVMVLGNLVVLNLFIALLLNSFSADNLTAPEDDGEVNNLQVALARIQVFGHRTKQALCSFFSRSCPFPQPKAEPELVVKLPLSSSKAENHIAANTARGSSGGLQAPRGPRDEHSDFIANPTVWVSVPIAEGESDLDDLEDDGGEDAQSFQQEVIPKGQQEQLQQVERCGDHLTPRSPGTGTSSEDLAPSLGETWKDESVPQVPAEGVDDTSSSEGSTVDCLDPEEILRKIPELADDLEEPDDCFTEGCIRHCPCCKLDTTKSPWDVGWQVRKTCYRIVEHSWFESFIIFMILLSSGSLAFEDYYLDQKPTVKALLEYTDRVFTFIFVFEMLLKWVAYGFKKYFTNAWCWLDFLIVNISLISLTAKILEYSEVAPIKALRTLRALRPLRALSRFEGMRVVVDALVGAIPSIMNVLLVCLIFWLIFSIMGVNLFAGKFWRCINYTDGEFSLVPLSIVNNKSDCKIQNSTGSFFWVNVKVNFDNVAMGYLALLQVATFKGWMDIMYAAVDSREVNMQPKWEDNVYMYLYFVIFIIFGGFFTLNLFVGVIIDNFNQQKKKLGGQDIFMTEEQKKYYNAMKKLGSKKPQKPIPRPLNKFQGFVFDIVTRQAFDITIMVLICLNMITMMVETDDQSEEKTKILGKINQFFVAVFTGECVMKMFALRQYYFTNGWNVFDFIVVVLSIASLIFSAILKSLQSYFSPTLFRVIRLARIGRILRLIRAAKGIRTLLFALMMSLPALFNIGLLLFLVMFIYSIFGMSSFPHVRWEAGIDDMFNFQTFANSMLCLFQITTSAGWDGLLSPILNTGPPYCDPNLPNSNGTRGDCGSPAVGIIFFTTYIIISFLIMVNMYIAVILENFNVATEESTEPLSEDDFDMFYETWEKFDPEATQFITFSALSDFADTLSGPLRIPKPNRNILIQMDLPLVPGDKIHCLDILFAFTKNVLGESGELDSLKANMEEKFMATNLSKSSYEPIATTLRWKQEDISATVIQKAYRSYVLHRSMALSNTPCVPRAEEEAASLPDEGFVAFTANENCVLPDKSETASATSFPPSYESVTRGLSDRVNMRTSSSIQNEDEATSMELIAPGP
Sequence of ADRB1 (P08588 whole entry, looked up): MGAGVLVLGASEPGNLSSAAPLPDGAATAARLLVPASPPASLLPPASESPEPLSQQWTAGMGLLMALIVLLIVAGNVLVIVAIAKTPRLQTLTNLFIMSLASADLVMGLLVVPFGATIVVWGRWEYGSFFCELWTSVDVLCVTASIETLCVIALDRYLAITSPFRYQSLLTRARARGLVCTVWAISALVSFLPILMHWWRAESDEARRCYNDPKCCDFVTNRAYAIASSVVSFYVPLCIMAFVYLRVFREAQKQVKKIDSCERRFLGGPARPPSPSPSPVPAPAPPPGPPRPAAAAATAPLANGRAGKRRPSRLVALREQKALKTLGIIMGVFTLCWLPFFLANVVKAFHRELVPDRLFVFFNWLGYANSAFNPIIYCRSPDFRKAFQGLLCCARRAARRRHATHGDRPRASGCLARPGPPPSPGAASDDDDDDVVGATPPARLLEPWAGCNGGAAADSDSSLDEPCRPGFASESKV
Sequence of Sigma non-opioid intracellular receptor 1 (Q99720 whole entry): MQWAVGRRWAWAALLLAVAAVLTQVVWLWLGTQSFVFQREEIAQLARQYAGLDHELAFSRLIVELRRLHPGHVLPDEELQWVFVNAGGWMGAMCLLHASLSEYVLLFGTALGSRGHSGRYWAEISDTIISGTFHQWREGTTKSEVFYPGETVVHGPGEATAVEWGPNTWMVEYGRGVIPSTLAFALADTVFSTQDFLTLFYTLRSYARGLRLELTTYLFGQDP
Sequence of Adenosine receptor A3 (P0DMS8 whole entry): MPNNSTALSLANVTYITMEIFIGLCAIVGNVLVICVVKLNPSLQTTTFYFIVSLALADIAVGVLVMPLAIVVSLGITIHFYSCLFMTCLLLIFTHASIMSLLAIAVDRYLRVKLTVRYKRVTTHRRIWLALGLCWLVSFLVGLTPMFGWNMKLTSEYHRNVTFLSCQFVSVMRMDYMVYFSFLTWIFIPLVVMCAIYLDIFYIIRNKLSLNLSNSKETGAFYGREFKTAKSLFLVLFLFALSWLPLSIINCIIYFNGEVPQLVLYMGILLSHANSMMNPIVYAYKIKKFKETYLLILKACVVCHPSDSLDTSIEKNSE
Sequence of C-X-C chemokine receptor type 2 (P25025 whole entry): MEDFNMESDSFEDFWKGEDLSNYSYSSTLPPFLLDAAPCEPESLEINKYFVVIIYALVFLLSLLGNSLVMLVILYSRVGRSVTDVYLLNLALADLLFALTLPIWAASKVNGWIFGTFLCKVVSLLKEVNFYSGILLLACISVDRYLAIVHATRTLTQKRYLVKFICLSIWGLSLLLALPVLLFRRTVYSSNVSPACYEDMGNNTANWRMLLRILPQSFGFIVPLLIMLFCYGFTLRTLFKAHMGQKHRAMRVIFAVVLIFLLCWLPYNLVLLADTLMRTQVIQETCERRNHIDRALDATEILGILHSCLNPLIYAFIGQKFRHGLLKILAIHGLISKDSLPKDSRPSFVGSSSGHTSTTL
Sequence of C-C chemokine receptor type 1 (P32246 whole entry): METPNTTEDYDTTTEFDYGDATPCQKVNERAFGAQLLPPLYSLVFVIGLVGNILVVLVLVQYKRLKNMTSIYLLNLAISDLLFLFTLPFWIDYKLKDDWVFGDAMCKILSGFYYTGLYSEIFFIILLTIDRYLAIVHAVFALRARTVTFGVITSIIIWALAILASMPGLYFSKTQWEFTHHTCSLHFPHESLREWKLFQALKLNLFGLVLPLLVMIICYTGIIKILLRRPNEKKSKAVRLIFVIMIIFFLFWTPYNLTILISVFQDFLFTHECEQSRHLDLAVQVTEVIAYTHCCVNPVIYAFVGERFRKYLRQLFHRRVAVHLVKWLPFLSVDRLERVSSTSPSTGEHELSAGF
Sequence of D(1A) dopamine receptor (P21728 whole entry): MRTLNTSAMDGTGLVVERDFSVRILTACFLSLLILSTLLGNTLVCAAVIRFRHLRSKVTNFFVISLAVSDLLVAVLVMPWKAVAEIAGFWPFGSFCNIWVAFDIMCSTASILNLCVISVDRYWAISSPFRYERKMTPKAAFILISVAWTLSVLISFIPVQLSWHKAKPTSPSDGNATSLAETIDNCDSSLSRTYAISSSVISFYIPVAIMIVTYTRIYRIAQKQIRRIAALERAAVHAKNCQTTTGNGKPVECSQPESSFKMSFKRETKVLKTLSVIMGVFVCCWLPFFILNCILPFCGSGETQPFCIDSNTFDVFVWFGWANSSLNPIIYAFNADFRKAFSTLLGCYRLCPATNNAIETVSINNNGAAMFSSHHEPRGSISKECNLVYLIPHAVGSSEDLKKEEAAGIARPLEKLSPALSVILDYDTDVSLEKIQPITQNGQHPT
Sequence of Delta-type opioid receptor (P41143 whole entry): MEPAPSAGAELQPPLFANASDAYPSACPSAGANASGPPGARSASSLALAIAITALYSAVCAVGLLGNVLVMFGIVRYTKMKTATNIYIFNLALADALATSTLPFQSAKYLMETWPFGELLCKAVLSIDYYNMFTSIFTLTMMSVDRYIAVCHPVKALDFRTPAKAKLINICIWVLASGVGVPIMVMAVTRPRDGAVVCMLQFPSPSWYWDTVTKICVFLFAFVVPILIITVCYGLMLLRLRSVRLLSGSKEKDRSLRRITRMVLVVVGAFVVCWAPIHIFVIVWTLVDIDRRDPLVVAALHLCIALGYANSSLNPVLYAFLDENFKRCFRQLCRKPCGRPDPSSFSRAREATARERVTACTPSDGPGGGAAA
Sequence of Muscarinic acetylcholine receptor M4 (P08173 whole entry): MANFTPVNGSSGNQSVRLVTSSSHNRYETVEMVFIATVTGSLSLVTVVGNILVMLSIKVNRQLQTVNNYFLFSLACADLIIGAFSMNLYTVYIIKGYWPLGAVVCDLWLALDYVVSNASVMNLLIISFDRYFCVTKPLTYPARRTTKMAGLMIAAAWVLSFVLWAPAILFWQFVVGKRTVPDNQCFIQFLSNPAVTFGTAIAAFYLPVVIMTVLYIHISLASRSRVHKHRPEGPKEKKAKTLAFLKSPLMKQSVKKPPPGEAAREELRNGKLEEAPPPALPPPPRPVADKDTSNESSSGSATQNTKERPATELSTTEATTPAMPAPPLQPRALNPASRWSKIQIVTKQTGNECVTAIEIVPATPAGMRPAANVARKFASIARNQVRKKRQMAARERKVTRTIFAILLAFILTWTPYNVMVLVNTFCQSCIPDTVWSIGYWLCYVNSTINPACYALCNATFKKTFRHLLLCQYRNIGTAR

- IC50 [9]: 3 µM
- IC50 [10]: > 10 µM
- IC50 [11]: > 10 µM
- IC50 [12]: > 10 µM
- half-life [13]: 4.9 h
- Cmax [14]: 190 ng/mL
- Tmax [15]: 1.5 h
- Tmax [16]: 1.6 h
- fraction unbound [17]: 0.013
- IC50 (Adenosine receptor A1): > 10 µM
- IC50 (Adenosine receptor A3): 12 µM
- IC50 [29]: > 10 µM
- IC50 (ADRB1): > 10 µM
- IC50 [30]: > 10 µM
- IC50 (D(1A) dopamine receptor): 7 µM
- IC50 [31]: 1 µM
- IC50 [32]: 0.079 µM
- IC50 [33]: 0.008 µM
- IC50 [35]: 6.74 µM
- IC50 (D(3) dopamine receptor): > 10 µM
- IC50 [38]: > 10 µM
- IC50 [39]: > 10 µM
- IC50 [40]: > 10 µM
- IC50 (Histamine H1 receptor): > 10 µM
- IC50 [41]: > 10 µM
- IC50 [42]: > 10 µM
- IC50 [43]: > 10 µM
- IC50 [44]: > 10 µM
- IC50 [45]: > 10 µM
- IC50 (Nociceptin receptor): > 10 µM
Structure (SMILES): COc1cc(NC(=O)c2ccc(-c3ccc(Cl)cc3)o2)cc(OC)c1
- ED50 (Rattus norvegicus [1]): 47 mg/kg
- ED50 (Rattus norvegicus [2]): 85 mg/kg
- Activity (Rattus norvegicus [3]): 56%
- Activity (Rattus norvegicus [4]): 61%
- Activity (Rattus norvegicus [5]): 9%
- Activity (Mus musculus): 34%
- ED50 (Rattus norvegicus [6]): > 100 mg/kg
- ED50 (Rattus norvegicus [7]): > 300 mg/kg
- ED50 (Rattus norvegicus [8]): > 300 mg/kg
- Activity (Rattus norvegicus [18]): >70%
- ED50 (Rattus norvegicus [19]): > 100 mg/kg
- ED50 (Rattus norvegicus [20]): 65 mg/kg
- Activity (Rattus norvegicus [21]): 70%
- ED50 (Rattus norvegicus [22]): 100 mg/kg
- Activity (Rattus norvegicus [23]): 46%
- Activity (Rattus norvegicus [24]): 54%
- Activity (Rattus norvegicus [25]): 64%
- Activity (Rattus norvegicus [26]): 71%
- ED50 (Rattus norvegicus [27]): > 100 mg/kg
- Activity (Rattus norvegicus [28]): 0%
- IC50 [34]: 32.8 µM
- Activity (Rattus norvegicus [36]): 34%
- Activity (Rattus norvegicus [37]): 42%
